Source: patent US10316131B2, “Hyperbranched polymer modified with isocyanate linker and mix of short and long chain alkyl polyether” (priority 2014, dated 2019)

Columns and labels:
[1] = Solubilization measurements with a highthroughput screening robot; assay type: physicochemical
Protocol: Solubilization measurements were carried out with a highthroughput screening robot. […] After the addition of stirring bars and 24 hours incubation time the samples were filtrated through polypropylene filters in order to separate dissolved active and its solid form. The amount of solubilized active was determined by UV/VIS spectroscopy.

[2] = tested on: Puccinia Recondata/Tritici; assay: Greenhouse test of pesticidal activity on infected wheat, suspension concentrates SC1 and SC2; assay type: in vivo, Puccinia Recondata/Tritici on wheat variety Monopol
Protocol: An aqueous suspension concentrate (“SC1”) was prepared as in Application Example 1. The pesticidal activity was tested in greenhouse tests on wheat variety Monopol, which was infected with the fungi Puccinia Recondata/Tritici. The plants were treated with SC1 three days after the inoculation at a use rate of […] (200 l water/ha). The use rate of the polymers of the invention was kept constant at 250 g per ha.
The above greenhouse tests were also made with a suspension concenctrate “SC2” of the triazole fungicide 2-[4-(4-chlorophenoxy)-2-(trifluoromethyl)phenyl]-1-(1H-1,2,4-triazol-1-yl)propan-2-ol (“triazole fungicide”) (100 g/ha) instead of fluxapyroxad.

[3] = 10 mg solid active in 3 wt % polymer solution in CIPAC water D, 24 hours, listed as of the active = no polymer

With NC(=O)N1c2ccccc2C=Cc2ccccc21 [carbamazepine] as the compound, how does the Solubility of carbamazepine [1, 3] read?
Its Solubility of carbamazepine is 181 pmm.

Which Solubility of fipronil [1] does the source give for N#Cc1nn(-c2c(Cl)cc(C(F)(F)F)cc2Cl)c(N)c1[S+]([O-])C(F)(F)F (centres unmarked) [fipronil] here?
The Solubility of fipronil was 12 pmm.

With Cn1cc(C(=O)Nc2ccccc2-c2cc(F)c(F)c(F)c2)c(C(F)F)n1 [fluxapyroxad] as the compound, how does the Solubility of fluxapyroxad [1, 3] read?
The Solubility of fluxapyroxad was 10 pmm.

And the “% infected leaf area, use rate of active 33%” value ([2]; fluxapyroxad SC1, use rate 8.3 pesticide per ha, polymer 250 g per ha, treated three days after inoculation, 7 days after inoculation)?
Its value is 80%.

And the “% infected leaf area, use rate of active 100%” value ([2]; fluxapyroxad SC1, use rate 25 pesticide per ha, polymer 250 g per ha, treated three days after inoculation, 7 days after inoculation)?
The value was 79%.

With CC(O)(Cn1cncn1)c1ccc(Oc2ccc(Cl)cc2)cc1C(F)(F)F (centres unmarked) [triazole fungicide, 2-[4-(4-chlorophenoxy)-2-(trifluoromethyl)phenyl]-1-(1H-1,2,4-triazol-1-yl)propan-2-ol] as the compound, how does the “Solubility of the triazole fungicide” value [1, 3] read?
Its value is 15 pmm.

And the “% infected leaf area, use rate of active 100%” value ([2]; triazole fungicide SC2 (100 g/ha) instead of fluxapyroxad)?
The value was 83%.

What about the “% infected leaf area, use rate of active 33%” value ([2]; triazole fungicide SC2 instead of fluxapyroxad, 33% use rate) of the same compound?
Its value is 91%.
